This note sets out measurements from PubChem BioAssay (NCI).

Some test systems named below: SR leukemia; UACC-62 melanoma; PC-3 prostate; SW-620 colon; OVCAR-5 ovarian; NCI-H23 lung; SF-539 CNS; OVCAR-3 ovarian; A498 renal; MALME-3M melanoma.
What all share (assay): NCI tumour cell line growth inhibition, 48 h

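Step 1: Grow cells in 96-well plates. Step 2: Expose to compound for 48 hours at 5 concentrations. Step 3: Interpolate endpoints linearly; if unreached, use highest concentration. GI50 = concentration required for 50% inhibition of growth. Definition used: TGI = concentration required for complete inhibition of growth.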

As for `C1CSCCSCCS1`, the TGI with SR leukemia, in the experiment with UACC-62 melanoma, with PC-3 prostate, in the experiment on SW-620 colon, with OVCAR-5 ovarian and in the experiment on NCI-H23 lung was over 100 µM in each case. The TGI with SF-539 CNS and in the experiment on OVCAR-3 ovarian was over 100 µM throughout.

As for `COC12C=C/C(=C(/C(=O)OCc3ccncc3)C(=O)CCCCCCCCC3(OC)C=C/C(=C(/C(=O)OCc4ccncc4)C(=O)CCCCCCCC1)O3)O2`, the GI50 was 0.191 µM in the experiment with SR leukemia; 0.78 µM in the experiment on A498 renal; 0.761 µM in the experiment with PC-3 prostate; 0.227 µM in the experiment on SW-620 colon; 0.87 µM with OVCAR-5 ovarian; 0.178 µM with NCI-H23 lung. For the same molecule, the GI50 is 0.877 µM with SF-539 CNS and 0.207 µM in the experiment with OVCAR-3 ovarian. The TGI with SR leukemia was found to be 7.01 µM; in the experiment with A498 renal, 1.48 µM; in the experiment on PC-3 prostate, 2.67 µM; in the experiment on SW-620 colon it was 1.26 µM; in the experiment with OVCAR-5 ovarian it was 4.6 µM; with NCI-H23 lung, 0.762 µM. Further, the TGI with SF-539 CNS was found to be 2.03 µM; with OVCAR-3 ovarian, 0.93 µM.

Turning to `CC1=C2CCCC2=C/C(=N/Nc2ccc([N+](=O)[O-])cc2[N+](=O)[O-])CC1`, the TGI in the experiment with MALME-3M melanoma, in the experiment on SR leukemia, in the experiment on UACC-62 melanoma, with SW-620 colon, in the experiment with OVCAR-5 ovarian and with NCI-H23 lung was over 100 µM each time. Moreover, the TGI with SF-539 CNS and with OVCAR-3 ovarian was over 100 µM in each case.

For the molecule `O=C(N/N=C1/C(=O)N(c2ccc(Cl)cc2Cl)C(=O)C(=O)C1c1nc2ccccc2o1)c1ccccc1O` (stereo not drawn), the TGI with MALME-3M melanoma is 78.6 µM; in the experiment on SR leukemia it was over 100 µM; in the experiment with A498 renal it was 88.2 µM; in the experiment with UACC-62 melanoma, 48.6 µM; with SW-620 colon it was over 100 µM; in the experiment on OVCAR-5 ovarian, over 100 µM. Besides, the TGI was found to be 84.3 µM with NCI-H23 lung, 97.1 µM in the experiment with SF-539 CNS and 52.4 µM with OVCAR-3 ovarian.

Take `Nc1nc(N)c(N=Nc2ccc([As](=O)(O)O)cc2)c(=O)[nH]1`: the TGI in the experiment on MALME-3M melanoma, in the experiment with SR leukemia, in the experiment on A498 renal, in the experiment with UACC-62 melanoma, with PC-3 prostate and with SW-620 colon was over 100 µM in each case. The TGI in the experiment with OVCAR-5 ovarian, in the experiment with NCI-H23 lung and with OVCAR-3 ovarian was over 100 µM in each case.

For `O=C1CC(C[C@H](O)C2CCCCC2O)CC(=O)N1Cc1ccccc1` (stereo partly drawn), the TGI with MALME-3M melanoma, in the experiment with SR leukemia, in the experiment with A498 renal, in the experiment with UACC-62 melanoma, in the experiment with SW-620 colon and in the experiment on OVCAR-5 ovarian was over 100 µM throughout. Besides, the TGI with NCI-H23 lung, with SF-539 CNS and in the experiment on OVCAR-3 ovarian was over 100 µM each time.

Take `COc1cccc(/C=N/[N-]C(=O)c2ccncc2)c1[O-].[Cu+2].[OH3+]`: the GI50 was over 100 µM with MALME-3M melanoma; 26.9 µM with SR leukemia; 58.4 µM in the experiment on A498 renal; 28.9 µM in the experiment on UACC-62 melanoma; 48.2 µM in the experiment on SW-620 colon; over 100 µM in the experiment with OVCAR-5 ovarian. For the same molecule, the results for the GI50 in the experiment with NCI-H23 lung, in the experiment on SF-539 CNS and in the experiment on OVCAR-3 ovarian were 34.1 µM, 18.2 µM and 33.7 µM, respectively. The TGI in the experiment with MALME-3M melanoma is over 100 µM; in the experiment with SR leukemia, 92 µM; in the experiment on A498 renal, over 100 µM; in the experiment with UACC-62 melanoma it was over 100 µM; with SW-620 colon it was over 100 µM; in the experiment on OVCAR-5 ovarian, over 100 µM. The TGI in the experiment with NCI-H23 lung is over 100 µM; in the experiment with SF-539 CNS, 76.8 µM; in the experiment with OVCAR-3 ovarian it was over 100 µM.

Turning to `COC1C(O)=C2C(=O)O/C(C)=C/C=C/C=C/C=C\CC(c3ccccc3)NC(=O)\C=C/C=C\C=C\C=C\[C@@]2(C)[C@@H]1O` (stereo partly drawn), the TGI in the experiment with MALME-3M melanoma is 0.329 µM; in the experiment on SR leukemia it was 0.165 µM; with A498 renal it was 0.318 µM; with UACC-62 melanoma, 0.551 µM; in the experiment with PC-3 prostate it was 0.103 µM; in the experiment with SW-620 colon, 0.139 µM. Moreover, the TGI in the experiment on OVCAR-5 ovarian was found to be 0.413 µM; with SF-539 CNS, 0.047 µM; with OVCAR-3 ovarian, 0.271 µM.

For the molecule `CCOC(=O)C(C)(C)Oc1ccc2c(C)c(-c3ccc(Cl)cc3)c(=O)oc2c1`, the TGI in the experiment on MALME-3M melanoma, with SR leukemia, in the experiment on A498 renal, in the experiment with UACC-62 melanoma, in the experiment on SW-620 colon and in the experiment with NCI-H23 lung was over 100 µM throughout. The TGI in the experiment with SF-539 CNS and with OVCAR-3 ovarian was over 100 µM in each case.

Consider `O=c1n(-c2ccccc2)c(=O)n2n1C1C=CC2C2C(C1)C2(Cl)Cl` (stereo not drawn), for which the TGI in the experiment on MALME-3M melanoma, in the experiment with SR leukemia, with A498 renal, in the experiment on UACC-62 melanoma, with SW-620 colon and with OVCAR-5 ovarian was over 100 µM in each case. Moreover, the TGI in the experiment with SF-539 CNS and in the experiment with OVCAR-3 ovarian was over 100 µM each time.

For the molecule `Cc1ccc(S(=O)(=O)N/N=C/c2oc(-c3ccncc3)c(-c3ccncc3)c2[N+](=O)[O-])cc1`, the TGI in the experiment with MALME-3M melanoma, with SR leukemia, with A498 renal, with UACC-62 melanoma, in the experiment on SW-620 colon and with OVCAR-5 ovarian was over 100 µM in each case. Also, the TGI in the experiment with NCI-H23 lung, in the experiment on SF-539 CNS and with OVCAR-3 ovarian was over 100 µM throughout.

Take `CCC1C2C=CC(CC2)N1S(=O)(=O)c1ccc(C)cc1` (stereo not drawn): the TGI was 73.4 µM with MALME-3M melanoma; 72.3 µM in the experiment on SR leukemia; over 100 µM in the experiment with A498 renal; 49.7 µM with UACC-62 melanoma; 50.3 µM in the experiment on SW-620 colon; 79 µM in the experiment on OVCAR-5 ovarian. The TGI with SF-539 CNS was 76.6 µM; with OVCAR-3 ovarian, over 100 µM.

As for `O=[N+]([O-])c1ccc(-n2nnc(C3=NCCN3)c2-c2ccc(Cl)cc2)cc1`, the TGI in the experiment on MALME-3M melanoma, with SR leukemia, with A498 renal, in the experiment on UACC-62 melanoma, in the experiment with SW-620 colon and in the experiment on OVCAR-5 ovarian was over 100 µM throughout. Further, the TGI in the experiment with NCI-H23 lung, in the experiment on SF-539 CNS and with OVCAR-3 ovarian was over 100 µM in each case.
